Reference: publication PMC9995496, “A screen for MeCP2-TBL1 interaction inhibitors using a luminescence-based assay” (Scientific Reports, 2023)

Molecular target: T1, MeCP2-TBL1 interaction (MeCP2-SmBiT / TBL1-LgBiT) (Mus musculus, UniProt Q9QXE7)
T1 construct: expressed in transfected cells; crude lysate used as a cell-free assay
T1 sequence (Q9QXE7 166-527): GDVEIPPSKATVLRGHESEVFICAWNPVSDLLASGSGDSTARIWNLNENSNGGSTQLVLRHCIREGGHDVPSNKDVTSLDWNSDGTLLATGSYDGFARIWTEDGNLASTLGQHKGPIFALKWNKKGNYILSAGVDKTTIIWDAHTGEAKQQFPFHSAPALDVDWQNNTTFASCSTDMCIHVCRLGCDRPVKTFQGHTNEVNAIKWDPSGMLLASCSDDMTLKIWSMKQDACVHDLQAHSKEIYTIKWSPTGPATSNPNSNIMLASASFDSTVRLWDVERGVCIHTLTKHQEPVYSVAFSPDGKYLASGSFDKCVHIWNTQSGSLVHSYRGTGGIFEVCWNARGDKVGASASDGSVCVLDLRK
Assay: MeCP2-TBL1 NanoLuc luciferase complementation assay (cell-free, extracts of transfected HEK293 cells);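 also: each compound tested at 20 µM final concentration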
Assay type: binding, human
Settings: primary screen of Asinex library, single well per compound
Procedure, shortened: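 Cell-free split NanoLuc: lysate of HEK293 cells co-expressing the MeCP2 C-terminal half-SmBiT and TBL1 WD domain-LgBiT, mixed 1:1 with furimazine. After 30 min at room temperature, luminescence was plate-median normalized.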

SMILES | Inhibition percent
Cc1cc(O)cc(=O)n1CC(=O)N1CCCCC1C1CCN(C(=O)Cc2ccccc2F)CC1 (stereo not drawn) [BDH_33628360] | -0.67
O=C1CNC(=O)C2(C/C=C/C[C@H]3COCC[C@H]3N1)CCN(c1ncccn1)CC2 [BDH_33727647] | -1.79
Cc1nn(C)cc1CCC(=O)N1CCC[C@@H]2NC(=O)c3ccccc3OCCCCC[C@@H]21 [BDH_33734258] | -1.51
Cn1nccc1CN[C@@H]1C[C@@H](Oc2ccccc2)[C@H](O)[C@H]1N1CCN(c2ccccc2)CC1 [BDH_33787192] | -0.36
CN(C)c1ccccc1C(=O)N(C)[C@H]1CC[C@@]2(CCO)C[C@H](c3ccccc3)C[C@](C)(O2)[C@@H]1O [BDH_33903744] | 1.99

Continued, values first:

Inhibition percent | SMILES
-0.55 | Cc1cc(NC(=O)CN2[C@H]3CCCCCN[C@@]3(C)C[C@H]2c2ccccc2)nn1C [BDH_33624483]
6.92 | C[C@]12C[C@@H](Cc3ccccc3)N(CC(=O)NCc3ccccc3Cl)[C@H]1CCCC(=O)N2 [BDH_33626431]
-0.41 | C[C@]12C[C@@H](Cc3ccccc3)N(C(=O)CC3CCN(c4ncccn4)CC3)[C@H]1CCCC(=O)N2 [BDH_33627845]
0.45 | O=C(NCCC1CCCCN1C(=O)CCN1C(=O)CCNC1=O)c1ccccc1 (stereo not drawn) [BDH_33628607]
-1.82 | C[C@]12C[C@@H](Cc3ccccc3)N(C(=O)c3ccc(OCCN4CCCCC4)cc3)[C@H]1CCCC(=O)N2 [BDH_33629014]
1.86 | CN1C(=O)N(CC(=O)N2CCCCC2CCNC(=O)c2ccccc2)C(=O)C12CCCCC2 (stereo not drawn) [BDH_33629465]
-2.28 | C[C@]12C[C@@H](c3cccc(C(F)(F)F)c3)N(C(=O)CCc3nc4ccccc4[nH]3)[C@H]1CCCCC(=O)N2 [BDH_33631539]
0.83 | C[C@@]12C[C@H](c3ccccc3)N(C(=O)CCCn3cccn3)[C@@H]1CCC[C@@H](O)[C@@H]2O [BDH_33903800]

Same assay, conditions: primary screen of the Asinex library, sheet "Sargen output Asinex library", one well per compound

SMILES | Inhibition percent
CC(=O)N[C@@]12CCN(CC(=O)Nc3ccc(C)c(F)c3)C[C@@H]1[C@@H](c1ccccc1)N(C(C)=O)C2 [BDH_33625631] | 2.58%
CNc1nc(C2CCCCN2C(=O)CCNc2nc(C)cc(C)n2)nc2c1CCN(C(C)=O)C2 (stereo not drawn) [BDH_33629184] | -0.36%
COc1cccc([C@H]2C[C@@](C)(NC(=O)C(C)C)[C@@H]3CC[C@@H](C)C[C@H]3O2)c1OCCN(C)C [BDH_33687810] | -1.87%
O=C1CNC(=O)C2(C/C=C/C[C@H]3COCC[C@H]3N1)CCN(C(=O)/C=C/c1ccccc1)CC2 [BDH_33728358] | -2.28%
Cc1ncc(C(=O)N2CCC[C@@H]3[C@H]2C/C=C/Cc2ccccc2OCC(=O)N3C)c(C)n1 [BDH_33728424] | -2.62%
CC(=O)N1CCC2(C/C=C/C[C@H]3CN(C(=O)Cc4cccc(F)c4)CC[C@H]3NC(=O)CNC2=O)CC1 [BDH_33732909] | -2.58%
CC(C)C[C@H](NC(=O)OCc1ccccc1)C(=O)N1CCC2(CC1)CO[C@@H]([C@@]1(C)CC[C@H](O)C(C)(C)O1)C2 [BDH_33767587] | -2.43%
CC(C)(C)OC(=O)NCCC(=O)N(Cc1ccccc1)C[C@@H]1C[C@@H](n2ccc(=O)[nH]c2=O)[C@@H](O)[C@@H]1O [BDH_33952010] | -1.46%

Further lines, results first:

Inhibition percent | SMILES
10.53% | CCc1ccc(NC(=O)CN2[C@H]3CCCCC(=O)N[C@@]3(C)C[C@H]2c2cccc(OC)c2)cc1 [BDH_33625442]
-0.70% | Cc1ccc(NC(=O)c2cccc(C3CCCN3C(=O)CCCN3Cc4ccccc4C3)n2)nc1 (stereo not drawn) [BDH_33628747]
1.15% | CC(C)c1nccn1CCC(=O)N1[C@H](Cc2ccccc2)C[C@]2(C)NC(=O)CCC[C@H]12 [BDH_33632337]
-3.47% | O=C1CNC(=O)C2(C/C=C/C[C@H]3COCC[C@@H]3N1)CCN(C(=O)COc1ccccc1)CC2 [BDH_33728395]
0.76% | O=C1COc2ccccc2CCCC[C@@H]2CN(C(=O)CCCn3cccn3)CC[C@H]2N1 [BDH_33762630]

Same assay, conditions: primary screen of the Asinex library, sheet "Sargen output Asinex library", one well per compound, Batch Ref. 1

SMILES | Inhibition percent
COc1ccc(C)cc1NC(=O)CN1CC[C@@]2(NC(C)=O)CN(C(C)=O)[C@H](c3ccccc3)[C@H]2C1 [BDH_33625816] | 0.56%
CC(=O)N[C@@]12CCN(CC(=O)Nc3cccc(F)c3)C[C@@H]1[C@@H](c1ccccc1)N(C(C)=O)C2 [BDH_33625995] | -1.85%
CC(=O)N[C@H]1C[C@@H](C(=O)N(C)C)N(CC(=O)NCc2ccccc2Cl)[C@H]1c1ccccc1 [BDH_33626360] | 0.20%
Nc1ncc(-c2cccc(C(F)(F)F)c2)c(C2CCCCN2C(=O)CCNC(=O)c2cccnc2)n1 (stereo not drawn) [BDH_33627369] | 1.39%
Nc1ncc(-c2cccc(C(F)(F)F)c2)c(C2CCCCN2C(=O)CCN2C(=O)CCNC2=O)n1 (stereo not drawn) [BDH_33628597] | 2.35%
Cc1cc(O)cc(=O)n1CCC(=O)N1CCCCC1C1CCN(C(=O)Cc2ccccc2F)CC1 (stereo not drawn) [BDH_33629102] | -1.24%
CNC(=O)c1sc2nc(C3CCCCN3C(=O)CCCNc3ncccn3)ccc2c1N (stereo not drawn) [BDH_33629130] | -2.07%
COc1cc2c(cc1[C@H]1C[C@@H](NC(C)=O)CC3(CCCCC3)O1)OCCCO2 [BDH_33665894] | 2.60%
CC(C)(O)[C@@H]1CC[C@](C)([C@H]2CC3(CCN(C(=O)c4ccc(-c5ccc(S(C)(=O)=O)cc5)cc4)CC3)CO2)O1 [BDH_33696510] | 0.0118%
Cc1nc(C(=O)N2CCCC3(C/C=C/COc4ccccc4C(=O)NCCNC3=O)C2)co1 (stereo not drawn) [BDH_33731677] | -0.08%
Cc1cnn(CC(=O)N2CCC3(C/C=C/CCOc4ccccc4C(=O)NCCCNC3=O)CC2)c1 [BDH_33775476] | 1.29%
CC(C)(C)OC(=O)N1[C@@H](CNC(=O)CCc2c[nH]c3ccccc23)C[C@@]2(C)[C@@H](O)CCCC[C@@H]12 [BDH_33903570] | 3.52%
CC(C)=CCC[C@]1(C)Oc2c(OCCOCCO)cccc2[C@H]2O[C@H]3CCN(C(=O)OC(C)(C)C)C[C@@H]3C[C@@H]21 [BDH_33957239] | 4.83%
CC(C)=CCC[C@]1(C)Oc2cc(OCC(N)=O)ccc2[C@H]2OC[C@@]3(CCCN(C(=O)OC(C)(C)C)C3)C[C@@H]21 [BDH_33958782] | 7.79%

Results, then the molecule that gave them:

Inhibition percent | SMILES
-1.08% | COc1ccc([C@@H]2C[C@]3(C)NC(=O)CCC[C@@H]3N2CC(=O)Nc2ccc(OC(F)F)cc2)cc1 [BDH_33624459]
-2.56% | COc1cccc([C@@H]2C[C@]3(C)NC(=O)CCCC[C@@H]3N2CC(=O)Nc2cc(C)n(C)n2)c1 [BDH_33624491]
10.91% | Cc1ccc(NC(=O)CN2[C@H](Cc3ccccc3)C[C@]3(C)NC(=O)CCC[C@H]23)cc1F [BDH_33625782]
2.77% | COc1ccc([C@@H]2C[C@]3(C)NC(=O)CCC[C@@H]3N2CC(=O)Nc2ccc(C)c(F)c2)cc1 [BDH_33625783]
-3.72% | COc1ccc([C@@H]2C[C@]3(C)NC(=O)CCC[C@@H]3N2CC(=O)Nc2cccc(F)c2)cc1 [BDH_33626152]
-0.22% | COc1ccc(NC(=O)CN2[C@H]3CCCCC(=O)N[C@@]3(C)C[C@H]2c2cccc(OC)c2)cc1 [BDH_33626569]
-3.55% | COc1ccc(NC(=O)CN2CC[C@@]3(NC(C)=O)CN(C(C)=O)[C@H](c4ccccc4)[C@H]3C2)cc1 [BDH_33626570]
1.89% | C[C@]12C[C@@H](Cc3ccccc3)N(C(=O)CCN3C(=O)CCCC3=O)[C@H]1CCCC(=O)N2 [BDH_33628122]
0.10% | Cn1c(=O)c2c(ncn2CCC(=O)N2[C@H](Cc3ccccc3)C[C@]3(C)NC(=O)CCC[C@H]23)n(C)c1=O [BDH_33628646]
-0.76% | Cn1c(=O)n(C)c2cc(CCC(=O)N3CCCCC3CCNC(=O)c3ccccc3)ccc21 (stereo not drawn) [BDH_33628839]
-0.39% | O=C(NCCC1CCCCN1C(=O)CCN1C(=O)COc2ccc(Cl)cc21)c1ccccc1 (stereo not drawn) [BDH_33629495]
-1.81% | C[C@]12C[C@@H](Cc3ccccc3)N(C(=O)c3ccc(OCCN4CCCC4)cc3)[C@H]1CCCC(=O)N2 [BDH_33629575]
-0.000826% | C[C@]12C[C@@H](Cc3ccccc3)N(C(=O)C3CCN(Cc4cccnc4)CC3)[C@H]1CCCC(=O)N2 [BDH_33630330]
-0.42% | CC(=O)N1CCCCC[C@@H]2[C@@H]1C[C@@H](Cc1ccccc1)N2C(=O)c1cccc(Cn2cncn2)c1 [BDH_33630828]
7.42% | C[C@]12C[C@@H](Cc3ccccc3)N(C(=O)c3ccc(NCc4cccnc4)cc3)[C@H]1CCCC(=O)N2 [BDH_33630910]
-1.89% | Cc1cc2ncn(CCC(=O)N3[C@H](Cc4ccccc4)C[C@]4(C)NC(=O)CCC[C@H]34)c2cc1C [BDH_33631266]
-1.65% | O=C(NCCC1CCCCN1C(=O)CCn1cnc2ccccc21)c1ccccc1 (stereo not drawn) [BDH_33631954]
-0.89% | COc1cccc(CN2CCC3(C/C=C/COc4ccccc4C(=O)NCCNC3=O)CC2)c1F [BDH_33701964]
4.94% | O=C1NCCNC(=O)C2(C/C=C/COc3ccccc31)CCN(C(=O)CCc1cccs1)CC2 [BDH_33701979]
3.00% | C[C@@]12C[C@H](c3ccccc3)N(C(=O)CCc3c[nH]c4ccccc34)[C@@H]1CCC[C@@H](O)[C@H]2O [BDH_33903568]
